Test results as given in patent publication US5834286A, “Recombinant cells that express phytate degrading enzymes in desired ratios” (Rohm Enzyme Finland Oy, priority 1995, dated 1998).
Like-named read-outs stand apart in the source and are kept apart here.

Key:
[1] = target: Aspergillus ficuum phytase (WO 91/05053) (Aspergillus niger, UniProt P34752); conditions: reported in WO 91/05053; substrate not given; cited from earlier work
[2] = target: T1, Aspergillus ficuum phytase, wild type (Ullah, 1988) (Aspergillus niger, UniProt P34752); conditions: reported by Ullah 1988; substrate not given; cited from earlier work
T1 construct: Ullah reportedly purified a phytase from wild-type A. ficuum; host or cells: wild-type A. ficuum (extracellular enzyme)
T1 sequence (P34752 20-467): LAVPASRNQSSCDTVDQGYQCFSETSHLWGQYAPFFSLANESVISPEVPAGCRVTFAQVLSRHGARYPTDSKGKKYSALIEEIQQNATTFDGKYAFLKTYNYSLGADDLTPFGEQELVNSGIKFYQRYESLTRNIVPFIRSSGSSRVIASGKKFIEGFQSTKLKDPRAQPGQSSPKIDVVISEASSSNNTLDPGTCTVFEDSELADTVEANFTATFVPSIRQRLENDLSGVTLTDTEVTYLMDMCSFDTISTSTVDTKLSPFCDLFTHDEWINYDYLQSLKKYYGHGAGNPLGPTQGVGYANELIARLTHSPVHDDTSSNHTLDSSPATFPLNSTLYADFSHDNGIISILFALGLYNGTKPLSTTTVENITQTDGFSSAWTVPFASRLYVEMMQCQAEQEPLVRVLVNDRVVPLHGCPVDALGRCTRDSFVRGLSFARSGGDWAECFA

[3] = target: T2, Aspergillus niger var. awamori strain ALKO243 (ATCC#38854) pH2.5 acid phosphatase, purified native enzyme, SEQ. ID. NO. 4 (Aspergillus awamori, UniProt P34755); test: Apparent Km of purified pH2.5 acid phosphatase (phosphate release, molybdate detection); assay type: biochemical; conditions: 37° C., read-out: apparent Km for sodium phytate
T2 construct: Peptide #1110T is derived from a trypsin digestion of purified native pH2.5 acid phosphatase; endogenous in cells; host or cells: A. niger var. awamori strain ALKO243 (ATCC#38854), purified in house from the cell-free culture medium
T2 sequence (P34755 20-479): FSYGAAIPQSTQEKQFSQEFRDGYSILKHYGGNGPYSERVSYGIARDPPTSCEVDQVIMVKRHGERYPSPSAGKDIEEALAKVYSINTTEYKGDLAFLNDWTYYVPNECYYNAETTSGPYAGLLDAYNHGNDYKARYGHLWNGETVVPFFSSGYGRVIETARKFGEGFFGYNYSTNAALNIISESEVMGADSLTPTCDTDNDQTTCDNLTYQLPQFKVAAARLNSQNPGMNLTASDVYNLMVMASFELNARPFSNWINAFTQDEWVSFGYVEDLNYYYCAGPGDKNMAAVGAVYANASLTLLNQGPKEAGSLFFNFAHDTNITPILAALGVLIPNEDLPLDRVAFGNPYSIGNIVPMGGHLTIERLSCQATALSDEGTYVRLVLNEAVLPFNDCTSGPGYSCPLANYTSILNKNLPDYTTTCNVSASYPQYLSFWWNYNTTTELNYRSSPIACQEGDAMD
Description: (§1) Both assays measure the amount of inorganic phosphate that is released by enzyme action as colorimetrically quantifying using reduction of a phosphomolybdate complex. One phytase unit (PU) is the amount of enzyme which liberates, under the conditions described below, 1 nmol of inorganic phosphate from Na-phytate in one minute at 37° C. One pH2.5 acid phosphatase unit (HFU) is the amount of enzyme which liberates, under the conditions indicated below, 1 nmol of inorganic phosphate from P-nitrophenyl phosphate in one minute.
(§2) pH2.5 acid phosphatase activity was determined in a similar fashion: namely, 0.1 ml of diluted enzyme (diluted in 0.2M Glycine-HCl buffer, pH2.5) was added to 1.9 ml of substrate (30 mM p-nitrophenyl phosphate [Boehringer Mannheim] dissolved in 0.2M Glycine --HCl buffer) pH2.5. After a fifteen-minute incubation at 37° C., the reaction was terminated by addition of an equal volume of 15% TCA (as above). The released orthophosphate was measured using Reagent C (as described above), and the activity determined by a comparison to known diluted phosphate standards (as above) and by using the calculations described above.

[4] = substrate: O=[N+]([O-])c1ccc(OP(=O)(O)O)cc1; test: purified protein, by the assay type; conditions: other: 37° C., pH2.5, pH 2.5
[5] = substrate: O=P(O)(O)O[C@H]1[C@H](OP(=O)(O)O)[C@@H](OP(=O)(O)O)[C@H](OP(=O)(O)O)[C@@H](OP(=O)(O)O)[C@H]1OP(=O)(O)O; test: Apparent Km of purified pH2.5 acid phosphatase (phosphate release, molybdate detection); assay type: biochemical, Aspergillus niger var. awamori; conditions: other: 37° C., pH 2.5
Description: as §1, §2

Sequence of Aspergillus ficuum phytase (WO 91/05053) (P34752 24-467): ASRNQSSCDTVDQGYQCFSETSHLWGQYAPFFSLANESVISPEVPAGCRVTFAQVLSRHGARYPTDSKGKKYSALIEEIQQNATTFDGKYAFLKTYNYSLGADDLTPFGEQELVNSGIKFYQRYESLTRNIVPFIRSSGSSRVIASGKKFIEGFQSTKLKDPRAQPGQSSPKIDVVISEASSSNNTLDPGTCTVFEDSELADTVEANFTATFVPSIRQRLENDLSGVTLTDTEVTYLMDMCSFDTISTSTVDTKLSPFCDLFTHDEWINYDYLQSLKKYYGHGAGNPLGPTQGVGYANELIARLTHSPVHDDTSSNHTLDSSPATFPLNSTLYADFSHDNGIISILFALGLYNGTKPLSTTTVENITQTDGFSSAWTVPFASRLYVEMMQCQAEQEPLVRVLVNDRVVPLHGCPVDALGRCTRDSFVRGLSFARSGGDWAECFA

## O=P(O)(O)O[C@H]1[C@H](OP(=O)(O)O)[C@@H](OP(=O)(O)O)[C@H](OP(=O)(O)O)[C@@H](OP(=O)(O)O)[C@H]1OP(=O)(O)O [phytate, myo-inositol-hexaphosphate]
[1]
  Km: ~250 µM
[2]
  Km: ~40 µM

## O=P(O)(O)O[C@H]1[C@H](OP(=O)(O)O)[C@@H](OP(=O)(O)O)[C@H](OP(=O)(O)O)[C@@H](OP(=O)(O)O)[C@H]1OP(=O)(O)O [sodium phytate]
[3]; listed as Na-phytate
  Km: ~700 µM
[3]
  Km: ~700 µM

B1: Aspergillus niger var. awamori strain ALKO243 (ATCC#38854) pH2.5 acid phosphatase, purified native enzyme, SEQ. ID. NO. 4 (Aspergillus awamori) (protein)
chain: T2 sequence (P34755 20-479)
notes: Peptide #1110T is derived from a trypsin digestion of purified native pH2.5 acid phosphatase; endogenous in cells; host or cells: A. niger var. awamori strain ALKO243 (ATCC#38854), purified in house from the cell-free culture medium
[4]
  Km: 4000 µM
[5]
  Km: 700 µM
